From ChEMBL document CHEMBL6109041, “Docking and structure activity relationship studies of potent and selective thiazolidinethione GSK-3 inhibitors” (Bioorg Med Chem Lett, 2025)

Legend:
[1] = target: T1, Glycogen synthase kinase-3 beta (Homo sapiens, UniProt P49841); test: Inhibition of GSK3beta (unknown origin)
Target sequence in this assay (P49841 whole entry): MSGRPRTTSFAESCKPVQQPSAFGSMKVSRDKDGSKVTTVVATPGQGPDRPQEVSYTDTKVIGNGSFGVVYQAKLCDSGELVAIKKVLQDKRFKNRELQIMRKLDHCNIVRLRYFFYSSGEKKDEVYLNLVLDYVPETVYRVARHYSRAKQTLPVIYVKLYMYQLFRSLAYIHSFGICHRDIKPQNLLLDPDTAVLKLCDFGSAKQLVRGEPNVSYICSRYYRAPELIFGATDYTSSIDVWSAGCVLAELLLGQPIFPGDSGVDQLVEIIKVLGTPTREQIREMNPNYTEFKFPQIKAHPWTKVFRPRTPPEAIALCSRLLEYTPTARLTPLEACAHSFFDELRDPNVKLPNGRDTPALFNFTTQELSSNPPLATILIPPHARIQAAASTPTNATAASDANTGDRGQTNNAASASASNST

[2] = target: T2, Glycogen synthase kinase-3 alpha (Homo sapiens, UniProt P49840); test: Inhibition of GSK3alpha (unknown origin)
Target sequence in this assay (P49840 whole entry): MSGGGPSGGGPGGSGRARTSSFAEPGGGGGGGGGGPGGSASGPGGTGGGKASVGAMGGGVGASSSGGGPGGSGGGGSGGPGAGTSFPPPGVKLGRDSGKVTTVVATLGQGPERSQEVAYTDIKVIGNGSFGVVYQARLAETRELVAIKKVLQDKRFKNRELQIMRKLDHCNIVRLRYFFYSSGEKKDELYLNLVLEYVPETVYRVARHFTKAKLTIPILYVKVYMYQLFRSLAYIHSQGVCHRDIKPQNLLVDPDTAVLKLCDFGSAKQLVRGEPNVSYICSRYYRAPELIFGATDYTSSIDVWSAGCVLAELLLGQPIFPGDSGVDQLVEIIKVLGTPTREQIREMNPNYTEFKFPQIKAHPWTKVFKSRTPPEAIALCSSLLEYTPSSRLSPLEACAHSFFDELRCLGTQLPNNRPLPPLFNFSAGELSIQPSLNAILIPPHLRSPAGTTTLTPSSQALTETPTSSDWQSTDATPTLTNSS

[3] = target: T1, Glycogen synthase kinase-3 beta; test: Inhibition of GSK3beta (unknown origin) at 2 uM relative to control
Target sequence in this assay (P49841 whole entry, looked up): as the sequence (P49841 whole entry) above

[4] = target: T2, Glycogen synthase kinase-3 alpha; test: Inhibition of GSK3alpha (unknown origin) at 2 uM relative to control
Target sequence in this assay (P49840 2-483 limits assumed): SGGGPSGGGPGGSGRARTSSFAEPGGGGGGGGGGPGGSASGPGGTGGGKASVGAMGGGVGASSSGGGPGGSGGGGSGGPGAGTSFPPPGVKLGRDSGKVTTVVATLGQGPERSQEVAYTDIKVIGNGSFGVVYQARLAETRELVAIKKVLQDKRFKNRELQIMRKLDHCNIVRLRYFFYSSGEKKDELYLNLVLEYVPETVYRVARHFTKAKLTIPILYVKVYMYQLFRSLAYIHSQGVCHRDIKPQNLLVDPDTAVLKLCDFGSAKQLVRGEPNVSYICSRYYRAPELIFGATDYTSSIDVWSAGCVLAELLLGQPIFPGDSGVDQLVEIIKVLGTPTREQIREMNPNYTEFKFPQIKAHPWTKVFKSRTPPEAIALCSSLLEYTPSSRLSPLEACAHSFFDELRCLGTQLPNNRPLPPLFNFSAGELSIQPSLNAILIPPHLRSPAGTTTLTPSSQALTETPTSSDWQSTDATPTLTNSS

Row | IC50 [1] | IC50 [2] | inhibition [3] | inhibition [4] | SMILES
1 | > 10 µM | > 10 µM | – | – | OC1(c2ccccc2)CSC(=S)N1Cc1ccccc1 (stereo not drawn)
2 | 0.0122 µM | 0.0182 µM | > 90% | > 90% | OC1(c2ccccc2)CSC(=S)N1Cc1ccncc1 (stereo not drawn)
3 | > 10 µM | > 10 µM | – | – | OC1(c2ccccc2)CSC(=S)N1Cc1ccccn1 (stereo not drawn)
